The assay in a line: The compound was tested for inhibition of HIV-1 replication in SW480 cells using HIV tat assay.
As to `C[C@@]12CCCC[C@]13O[C@@H]3C(=O)C(C#N)C2` (some centres not stated), the IC50 (in general, the concentration that gives 50% inhibition) came out at 34 µM. For the compound `C[C@]12CCCC[C@]1(O)[C@H](Cl)C(=O)C(C(N)=O)C2` (some centres not stated), the IC50 is 32.1 µM. As for `C[C@]12CCCC[C@@]13O[C@H]3C(=O)C(C#N)C2` (some centres not stated), the figure is 278 µM.

`C[C@@]12CCCC[C@@]1(O)[C@@H](Cl)C(=O)C(C(=O)Nc1ccccc1)C2` (some centres not stated) came in with an IC50 of 7 µM.

Turning to `C[C@]12CC[C@H]3[C@@H](CC[C@@]45O[C@@H]4C(=O)C(S(=O)(=O)c4ccccc4)C[C@]35C)[C@@H]1CC[C@@H]2O` (some centres not stated), the IC50 was 10.3 µM. For `CC(=O)O[C@H]1CC[C@H]2[C@@H]3CC[C@@]45O[C@@H]4C(=O)C(S(C)(=O)=O)C[C@]5(C)[C@H]3CC[C@]12C` (some centres not stated), the IC50 turned out to be 2.6 µM. As for `CC(=O)O[C@H]1CC[C@H]2[C@@H]3CC[C@@]45O[C@@H]4C(=O)C(C(N)=O)C[C@]5(C)[C@H]3CC[C@]12C` (some centres not stated), the figure is 2.6 µM. As to `C[C@]12CC[C@H]3[C@@H](CC[C@@]45O[C@@H]4C(=O)C(C(N)=O)C[C@]35C)[C@@H]1CC[C@@H]2O` (some centres not stated), half-maximal inhibition (IC50) was put at 14.3 µM. Turning to `COc1ccc(NC(=O)C2C[C@]3(C)CCCC[C@@]3(O)[C@@H](Cl)C2=O)cc1` (some centres not stated), the IC50 is 33.5 µM. Take `C[C@@]12CCCC[C@]13O[C@@H]3C(=O)C(C(=O)Nc1ccccc1)C2` (some centres not stated): the IC50 was found to be 2.8 µM. As to `CC(=O)O[C@H]1CC[C@H]2[C@@H]3CC[C@@]45O[C@@H]4C(=O)C(C#N)C[C@]5(C)[C@H]3CC[C@]12C` (some centres not stated), the IC50 came to 24.5 µM. The result for `CC(=O)O[C@H]1CC[C@H]2[C@@H]3CC[C@@]4(O)[C@@H](Cl)C(=O)C(C(N)=O)C[C@]4(C)[C@H]3CC[C@]12C` (some centres not stated) reads 8.4 µM; that for `COc1ccc(NC(=O)C2C[C@]3(C)CCCC[C@]34O[C@@H]4C2=O)cc1` (some centres not stated), 25.7 µM. As for `C[C@@]12CCCC[C@@]1(O)[C@@H](Cl)C(=O)C(C(N)=O)C2` (some centres not stated), the midpoint of inhibition, the IC50, lay at 16.5 µM. The result for `C[C@@]12CCCC[C@]13O[C@@H]3C(=O)C(C(N)=O)C2` (some centres not stated) reads 9.9 µM; that for `C[C@]12CCCC[C@@]13O[C@H]3C(=O)C(C(N)=O)C2` (some centres not stated), 72 µM. In the case of `C[C@]12CC[C@H]3[C@@H](CC[C@@]45O[C@@H]4C(=O)CC[C@]35C)[C@@H]1CC[C@@H]2O`, the IC50 was determined as 15.4 µM. The result for `COc1ccc(NC(=O)C2CC(C)(C)C3OC3C2=O)cc1` (configuration not stated) reads 21.4 µM; that for `C[C@]12CCC3C(CC[C@@]45O[C@@H]4C(=O)C(S(C)(=O)=O)C[C@]35C)C1CC[C@@H]2O` (some centres not stated), 8.4 µM; that for `COC(=O)C1C[C@]2(C)[C@H]3CC[C@]4(C)[C@@H](OC(C)=O)CC[C@H]4[C@@H]3CC[C@]23O[C@@H]3C1=O` (some centres not stated), 2.7 µM.

`CC1(C)CC(C(=O)Nc2c(Cl)cccc2Cl)C(=O)C2OC21` (configuration not stated) showed an IC50 of 31.7 µM. Turning to `COC(=O)C1C[C@]2(C)[C@H]3CC[C@]4(C)[C@@H](O)CC[C@H]4[C@@H]3CC[C@]23O[C@@H]3C1=O` (some centres not stated), the IC50 was found to be 3.6 µM.

The values above are taken from BindingDB's records for doi:10.1021/jm00017a003 (Sterling Winthrop Pharmaecuticals Research Division, 1995).
